What follows are compounds tested on mice (assay: Neuropharmacological assay (SmartCube), behavioral signature of compound-treated mice). Settings: i.p. 15 min before behavioral test, most efficacious dose(s) of 3 doses.
Assay type: in vivo
How it was run: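 Mice received compound i.p. in NMP/PEG/propylene glycol vehicle at 3 doses, 15 min before testing. Video-captured behavior was algorithmically compared with a reference-drug signature database.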
For Cc1cccc2c1[C@@H]([C@@H]1CCCN1)OCCC2 [Compound I-101, (S)-2-((S)-9-methyl-1,3,4,5-tetrahydrobenzo[c]oxepin-1-yl)pyrrolidine], the “AD: ADHD (probability that behavioral signature matches class)” value (from here on “AD: ADHD”) was “+ (LOQ ≤ + <5%)”, the “AG: analgesic (probability that behavioral signature matches class)” value (“AG: analgesic” for short) was “+ (LOQ ≤ + <5%)” and the “AX: anxiolytic (probability that behavioral signature matches class)” value (from here on “AX: anxiolytic”) was “++ (5% ≤ ++ <25%)”. For the same compound, the “CE: cognitive enhancer (probability that behavioral signature matches class)” value (shortened to “CE: cognitive enhancer”) was “+ (LOQ ≤ + <5%)”, the “DP: anti-depressant (probability that behavioral signature matches class)” value (“DP: anti-depressant” below) was “++ (5% ≤ ++ <25%)” and the “HA: hallucinogen (probability that behavioral signature matches class)” value (shortened to “HA: hallucinogen”) was “+ (LOQ ≤ + <5%)”. For the same compound, the “MS: mood stabilizer (probability that behavioral signature matches class)” value (from here on “MS: mood stabilizer”) was “+ (LOQ ≤ + <5%)”, the “PS: anti-psychotic (probability that behavioral signature matches class)” value (“PS: anti-psychotic” below) was “+ (LOQ ≤ + <5%)” and the “SD: sedative hypnotic (probability that behavioral signature matches class)” value (from here on “SD: sedative hypnotic”) was “+ (LOQ ≤ + <5%)”. For the same compound, the “UN: uncharacterized CNS activity (probability that behavioral signature matches class)” value (from here on “UN: uncharacterized CNS activity”) was “+ (LOQ ≤ + <5%)” and the “XG: anxiogenic (probability that behavioral signature matches class)” value (“XG: anxiogenic” for short) was “+ (LOQ ≤ + <5%)”. With c1ccc2c(c1)CCO[C@@H]2[C@@H]1CCCCN1 [Compound I-71, (S)-2-((S)-isochroman-1-yl)piperidine] the “AD: ADHD” value was “+ (LOQ ≤ + <5%)”, the “AG: analgesic” value was “+ (LOQ ≤ + <5%)” and the “AX: anxiolytic” value was “+++ (25% ≤ +++ <50%)”. The “CE: cognitive enhancer” value was “++ (5% ≤ ++ <25%)”, the “DP: anti-depressant” value was “++ (5% ≤ ++ <25%)” and the “HA: hallucinogen” value was “+ (LOQ ≤ + <5%)”. The “MS: mood stabilizer” value was “++ (5% ≤ ++ <25%)”, the “PS: anti-psychotic” value was “++ (5% ≤ ++ <25%)” and the “SD: sedative hypnotic” value was “+ (LOQ ≤ + <5%)”. The “UN: uncharacterized CNS activity” value was “+ (LOQ ≤ + <5%)” and the “XG: anxiogenic” value was “+ (LOQ ≤ + <5%)”. For c1ccc2c(c1)CCO[C@H]2[C@@H]1COCCN1 [Compound I-76, (S)-3-((R)-isochroman-1-yl)morpholine], the “AD: ADHD” value was “+ (LOQ ≤ + <5%)”, the “AG: analgesic” value was “++ (5% ≤ ++ <25%)” and the “AX: anxiolytic” value was “++ (5% ≤ ++ <25%)”. For the same compound, the “CE: cognitive enhancer” value was “+ (LOQ ≤ + <5%)”, the “DP: anti-depressant” value was “++ (5% ≤ ++ <25%)” and the “HA: hallucinogen” value was “+ (LOQ ≤ + <5%)”. The “MS: mood stabilizer” value was “+ (LOQ ≤ + <5%)”, the “PS: anti-psychotic” value was “++ (5% ≤ ++ <25%)” and the “SD: sedative hypnotic” value was “+ (LOQ ≤ + <5%)”. For the same compound, the “UN: uncharacterized CNS activity” value was “+ (LOQ ≤ + <5%)” and the “XG: anxiogenic” value was “+ (LOQ ≤ + <5%)”. For Fc1cccc2c1[C@@H]([C@H]1CCCN1)OCC2 [Compound I-3, (R)-2-((S)-8-fluoroisochroman-1-yl)pyrrolidine], the “AD: ADHD” value was “+ (LOQ ≤ + <5%)”, the “AG: analgesic” value was “++ (5% ≤ ++ <25%)” and the “AX: anxiolytic” value was “++ (5% ≤ ++ <25%)”. The “CE: cognitive enhancer” value was “++ (5% ≤ ++ <25%)”, the “DP: anti-depressant” value was “+++ (25% ≤ +++ <50%)” and the “HA: hallucinogen” value was “+ (LOQ ≤ + <5%)”. The “MS: mood stabilizer” value was “++ (5% ≤ ++ <25%)”, the “PS: anti-psychotic” value was “++ (5% ≤ ++ <25%)” and the “SD: sedative hypnotic” value was “++ (5% ≤ ++ <25%)”. The “UN: uncharacterized CNS activity” value was “+++ (25% ≤ +++ <50%)” and the “XG: anxiogenic” value was “+ (LOQ ≤ + <5%)”. In the case of Fc1ccc2c(c1)[C@H]([C@@H]1CCCN1)OCCC2 [Compound I-107, (S)-2-((R)-8-fluoro-1,3,4,5-tetrahydrobenzo[c]oxepin-1-yl)pyrrolidine], the “AD: ADHD” value is reported as “+ (LOQ ≤ + <5%)”, the “AG: analgesic” value is reported as “++ (5% ≤ ++ <25%)” and the “AX: anxiolytic” value is reported as “+++ (25% ≤ +++ <50%)”. The “CE: cognitive enhancer” value was “++ (5% ≤ ++ <25%)”, the “DP: anti-depressant” value was “++ (5% ≤ ++ <25%)” and the “HA: hallucinogen” value was “+ (LOQ ≤ + <5%)”. The “MS: mood stabilizer” value was “++ (5% ≤ ++ <25%)”, the “PS: anti-psychotic” value was “+++ (25% ≤ +++ <50%)” and the “SD: sedative hypnotic” value was “++ (5% ≤ ++ <25%)”. For the same compound, the “UN: uncharacterized CNS activity” value was “++ (5% ≤ ++ <25%)” and the “XG: anxiogenic” value was “+ (LOQ ≤ + <5%)”. With C[C@]1([C@@H]2CCCN2)OCc2cc(F)ccc21 [Compound I-123, (S)-2-((S)-5-fluoro-1-methyl-1,3-dihydroisobenzofuran-1-yl)pyrrolidine] the “AD: ADHD” value was “+ (LOQ ≤ + <5%)”, the “AG: analgesic” value was “+ (LOQ ≤ + <5%)” and the “AX: anxiolytic” value was “+ (LOQ ≤ + <5%)”. The “CE: cognitive enhancer” value was “+ (LOQ ≤ + <5%)”, the “DP: anti-depressant” value was “+ (LOQ ≤ + <5%)” and the “HA: hallucinogen” value was “+ (LOQ ≤ + <5%)”. The “MS: mood stabilizer” value was “+ (LOQ ≤ + <5%)”, the “PS: anti-psychotic” value was “+ (LOQ ≤ + <5%)” and the “SD: sedative hypnotic” value was “+ (LOQ ≤ + <5%)”. For the same compound, the “UN: uncharacterized CNS activity” value was “+ (LOQ ≤ + <5%)” and the “XG: anxiogenic” value was “+ (LOQ ≤ + <5%)”. With N#Cc1ccc2c(c1)CCO[C@@H]2[C@@H]1CCCN1 [Compound I-43, (S)-1-((S)-pyrrolidin-2-yl)isochroman-6-carbonitrile] the “AD: ADHD” value was “+ (LOQ ≤ + <5%)”, the “AG: analgesic” value was “++ (5% ≤ ++ <25%)” and the “AX: anxiolytic” value was “+++ (25% ≤ +++ <50%)”. The “CE: cognitive enhancer” value was “++ (5% ≤ ++ <25%)”, the “DP: anti-depressant” value was “++ (5% ≤ ++ <25%)” and the “HA: hallucinogen” value was “+ (LOQ ≤ + <5%)”. For the same compound, the “MS: mood stabilizer” value was “+ (LOQ ≤ + <5%)”, the “PS: anti-psychotic” value was “++ (5% ≤ ++ <25%)” and the “SD: sedative hypnotic” value was “+ (LOQ ≤ + <5%)”. For the same compound, the “UN: uncharacterized CNS activity” value was “+ (LOQ ≤ + <5%)” and the “XG: anxiogenic” value was “+ (LOQ ≤ + <5%)”. c1c2c(cc3c1OCO3)[C@@H]([C@@H]1CCCN1)OCC2 [Compound I-53, (S)-2-((S)-7,8-dihydro-5H-[1,3]dioxolo[4,5-g]isochromen-5-yl)pyrrolidine] was tested, and the “AD: ADHD” value was “+ (LOQ ≤ + <5%)”, the “AG: analgesic” value was “+ (LOQ ≤ + <5%)” and the “AX: anxiolytic” value was “+ (LOQ ≤ + <5%)”. For the same compound, the “CE: cognitive enhancer” value was “+ (LOQ ≤ + <5%)”, the “DP: anti-depressant” value was “+ (LOQ ≤ + <5%)” and the “HA: hallucinogen” value was “+ (LOQ ≤ + <5%)”. The “MS: mood stabilizer” value was “+ (LOQ ≤ + <5%)”, the “PS: anti-psychotic” value was “+ (LOQ ≤ + <5%)” and the “SD: sedative hypnotic” value was “+ (LOQ ≤ + <5%)”. For the same compound, the “UN: uncharacterized CNS activity” value was “+ (LOQ ≤ + <5%)” and the “XG: anxiogenic” value was “+ (LOQ ≤ + <5%)”. In the case of Fc1ccc2c(c1)[C@@H]([C@@H]1CCN1)OCC2 [Compound I-85, (S)-2-((S)-7-fluoroisochroman-1-yl)azetidine], the “AD: ADHD” value is reported as “+ (LOQ ≤ + <5%)”, the “AG: analgesic” value is reported as “+ (LOQ ≤ + <5%)” and the “AX: anxiolytic” value is reported as “++ (5% ≤ ++ <25%)”. For the same compound, the “CE: cognitive enhancer” value was “++ (5% ≤ ++ <25%)”, the “DP: anti-depressant” value was “++ (5% ≤ ++ <25%)” and the “HA: hallucinogen” value was “+ (LOQ ≤ + <5%)”. For the same compound, the “MS: mood stabilizer” value was “+ (LOQ ≤ + <5%)”, the “PS: anti-psychotic” value was “+++ (25% ≤ +++ <50%)” and the “SD: sedative hypnotic” value was “++ (5% ≤ ++ <25%)”. The “UN: uncharacterized CNS activity” value was “++ (5% ≤ ++ <25%)” and the “XG: anxiogenic” value was “+ (LOQ ≤ + <5%)”. With Fc1ccc2c(c1)CCCO[C@@H]2[C@@H]1CCCN1 [Compound I-110, (S)-2-((S)-7-fluoro-1,3,4,5-tetrahydrobenzo[c]oxepin-1-yl)pyrrolidine] the “AD: ADHD” value was “+ (LOQ ≤ + <5%)”, the “AG: analgesic” value was “++ (5% ≤ ++ <25%)” and the “AX: anxiolytic” value was “++ (5% ≤ ++ <25%)”. For the same compound, the “CE: cognitive enhancer” value was “++ (5% ≤ ++ <25%)”, the “DP: anti-depressant” value was “++ (5% ≤ ++ <25%)” and the “HA: hallucinogen” value was “+ (LOQ ≤ + <5%)”. For the same compound, the “MS: mood stabilizer” value was “+ (LOQ ≤ + <5%)”, the “PS: anti-psychotic” value was “++++ (50% ≤ ++++)” and the “SD: sedative hypnotic” value was “++ (5% ≤ ++ <25%)”. For the same compound, the “UN: uncharacterized CNS activity” value was “+++ (25% ≤ +++ <50%)” and the “XG: anxiogenic” value was “+ (LOQ ≤ + <5%)”. With Cc1ccc2c(c1)[C@H](C1CNC1)OCC2 [Compound I-117, (S)-3-(7-methylisochroman-1-yl)azetidine] the “AD: ADHD” value was “+ (LOQ ≤ + <5%)”, the “AG: analgesic” value was “+ (LOQ ≤ + <5%)” and the “AX: anxiolytic” value was “++ (5% ≤ ++ <25%)”. For the same compound, the “CE: cognitive enhancer” value was “++ (5% ≤ ++ <25%)”, the “DP: anti-depressant” value was “++ (5% ≤ ++ <25%)” and the “HA: hallucinogen” value was “+ (LOQ ≤ + <5%)”. The “MS: mood stabilizer” value was “+ (LOQ ≤ + <5%)”, the “PS: anti-psychotic” value was “+++ (25% ≤ +++ <50%)” and the “SD: sedative hypnotic” value was “+ (LOQ ≤ + <5%)”. For the same compound, the “UN: uncharacterized CNS activity” value was “+ (LOQ ≤ + <5%)” and the “XG: anxiogenic” value was “+ (LOQ ≤ + <5%)”.
